ChEMBL document CHEMBL1201862, “PubChem BioAssay data set” (2004)
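A five-concentration, 48-hour dose response in 96-well plates underlies each endpoint, interpolated linearly between surrounding concentrations. The concentration for 50% growth inhibition is given as GI50.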 Calls of active or inactive are those of the source. Rule as the data show it: active = GI50 up to about 1.1 µM and inactive = higher.

What was measured:
Experiment in all cases: NCI-60 cell line screen, 48 h
EKVX = system: EKVX
RPMI-8226 = system: RPMI-8226
NCI-H460 = system: NCI-H460
NCI-H226 = system: NCI-H226
786-0 = system: 786-0
NCI-H522 = system: NCI-H522
SNB-19 = system: SNB-19
A498 = system: A498
BT-549 = system: BT-549
NCI-H23 = system: NCI-H23
U-251 = system: U-251
SF-268 = system: SF-268
HL-60 = system: HL-60
OVCAR-8 = system: OVCAR-8
HCT-15 = system: HCT-15
HOP-62 = system: HOP-62
HCC 2998 = system: HCC 2998
TK-10 = system: TK-10
DU-145 = system: DU-145
ACHN = system: ACHN
MCF7 = system: MCF7
Malme-3M = system: Malme-3M
MDA-N = system: MDA-N
NCI/ADR-RES = system: NCI/ADR-RES
M14 = system: M14
HT-29 = system: HT-29
LOX IMVI = system: LOX IMVI
HOP-92 = system: HOP-92
MOLT-4 = system: MOLT-4
MDA-MB-231 = system: MDA-MB-231
OVCAR-4 = system: OVCAR-4
OVCAR-5 = system: OVCAR-5
IGROV-1 = system: IGROV-1
SNB-75 = system: SNB-75
T47D = system: T47D
CCRF-CEM = system: CCRF-CEM
PC-3 = system: PC-3
COLO 205 = system: COLO 205
HCT-116 = system: HCT-116
UACC-62 = system: UACC-62
Hs-578T = system: Hs-578T
SK-MEL-28 = system: SK-MEL-28
SK-MEL-2 = system: SK-MEL-2
OVCAR-3 = system: OVCAR-3
UO-31 = system: UO-31
KM12 = system: KM12
SF-539 = system: SF-539
SK-OV-3 = system: SK-OV-3
SF-295 = system: SF-295
SN12C = system: SN12C
RXF 393 = system: RXF 393
SK-MEL-5 = system: SK-MEL-5
A549 = system: A549
UACC-257 = system: UACC-257
K562 = system: K562
MDA-MB-435 = system: MDA-MB-435
SW-620 = system: SW-620
CAKI-1 = system: CAKI-1

COc1ccc2cc3c4cc5c(cc4cc[n+]3cc2c1OC)OCO5
GI50 (EKVX): 6.22 µM (inactive) | GI50 (RPMI-8226): 8.13 µM (inactive) | GI50 (NCI-H460): 17.9 µM (inactive) | GI50 (NCI-H226): 26.4 µM (inactive) | GI50 (786-0): 10.2 µM (inactive) | GI50 (NCI-H522): 3.63 µM (inactive) | GI50 (SNB-19): 3.15 µM (inactive) | GI50 (A498): > 100 µM (inactive) | GI50 (BT-549): 1.63 µM (inactive) | GI50 (NCI-H23): 8.09 µM (inactive) | GI50 (U-251): 0.615 µM (active) | GI50 (SF-268): 2.94 µM (inactive) | GI50 (HL-60): 19.2 µM (inactive) | GI50 (OVCAR-8): 2.37 µM (inactive) | GI50 (HCT-15): 83.2 µM | GI50 (HOP-62): 5.6 µM (inactive) | GI50 (HCC 2998): 22 µM (inactive) | GI50 (TK-10): 19.9 µM (inactive) | GI50 (DU-145): 30.3 µM (inactive) | GI50 (ACHN): 38.4 µM (inactive) | GI50 (MCF7): 20 µM (inactive) | GI50 (Malme-3M): 4.83 µM (inactive) | GI50 (MDA-N): 7.52 µM (inactive) | GI50 (NCI/ADR-RES): > 100 µM (inactive) | GI50 (M14): 15.2 µM (inactive) | GI50 (HT-29): 26.3 µM (inactive) | GI50 (LOX IMVI): 28.4 µM (inactive) | GI50 (HOP-92): 18.1 µM (inactive) | GI50 (MOLT-4): 8.53 µM (inactive) | GI50 (MDA-MB-231): 23.4 µM (inactive) | GI50 (OVCAR-4): 20.6 µM (inactive) | GI50 (OVCAR-5): 47.5 µM (inactive) | GI50 (IGROV-1): 8.11 µM (inactive) | GI50 (SNB-75): 27.8 µM (inactive) | GI50 (T47D): 17.4 µM (inactive) | GI50 (CCRF-CEM): 6.43 µM (inactive) | GI50 (PC-3): 14.2 µM (inactive) | GI50 (COLO 205): 2.08 µM (inactive) | GI50 (HCT-116): 15.1 µM (inactive) | GI50 (UACC-62): 12.3 µM (inactive) | GI50 (Hs-578T): 3.26 µM (inactive) | GI50 (SK-MEL-28): 5.33 µM (inactive) | GI50 (SK-MEL-2): 22.8 µM (inactive) | GI50 (OVCAR-3): 3.87 µM (inactive) | GI50 (UO-31): 36.3 µM (inactive) | GI50 (KM12): 2.88 µM (inactive) | GI50 (SF-539): 11.4 µM (inactive) | GI50 (SK-OV-3): 29.4 µM (inactive) | GI50 (SF-295): 5.53 µM (inactive) | GI50 (SN12C): 2.52 µM (inactive) | GI50 (RXF 393): 24.4 µM (inactive) | GI50 (SK-MEL-5): 3.39 µM (inactive) | GI50 (A549): 18.3 µM (inactive) | GI50 (UACC-257): 6.46 µM (inactive) | GI50 (K562): 16.6 µM (inactive) | GI50 (MDA-MB-435): 6.95 µM (inactive) | GI50 (SW-620): 5.27 µM (inactive)

COC(=O)c1ccccc1C1CN=NC12Cc1cc(C)cc(C)c1C2=O (stereo not given)
GI50 (EKVX): 70 µM (inactive) | GI50 (NCI-H460): 45.5 µM (inactive) | GI50 (NCI-H226): 99.3 µM (inactive) | GI50 (786-0): > 100 µM (inactive) | GI50 (NCI-H522): 13.3 µM (inactive) | GI50 (SNB-19): > 100 µM (inactive) | GI50 (A498): 2.9 µM (inactive) | GI50 (BT-549): 63.4 µM (inactive) | GI50 (NCI-H23): 15.1 µM (inactive) | GI50 (U-251): 64.1 µM (inactive) | GI50 (SF-268): > 100 µM (inactive) | GI50 (HL-60): 22 µM (inactive) | GI50 (OVCAR-8): > 100 µM (inactive) | GI50 (HCT-15): 17.3 µM | GI50 (HOP-62): > 100 µM (inactive) | GI50 (HCC 2998): 46.9 µM (inactive) | GI50 (TK-10): 60.4 µM (inactive) | GI50 (DU-145): > 100 µM (inactive) | GI50 (ACHN): 88.7 µM (inactive) | GI50 (MCF7): 27.5 µM (inactive) | GI50 (Malme-3M): 97.9 µM (inactive) | GI50 (MDA-N): 57 µM (inactive) | GI50 (NCI/ADR-RES): 38.4 µM (inactive) | GI50 (M14): 67.8 µM (inactive) | GI50 (HT-29): 23.4 µM (inactive) | GI50 (LOX IMVI): 20 µM (inactive) | GI50 (HOP-92): 26.9 µM (inactive) | GI50 (MOLT-4): 32.1 µM (inactive) | GI50 (MDA-MB-231): 14.4 µM (inactive) | GI50 (OVCAR-4): 65.3 µM (inactive) | GI50 (OVCAR-5): > 100 µM (inactive) | GI50 (IGROV-1): > 100 µM (inactive) | GI50 (SNB-75): 23.1 µM (inactive) | GI50 (T47D): 44.7 µM (inactive) | GI50 (CCRF-CEM): 33.4 µM (inactive) | GI50 (PC-3): 37.5 µM (inactive) | GI50 (COLO 205): 30.5 µM (inactive) | GI50 (HCT-116): 44.1 µM (inactive) | GI50 (UACC-62): 75.5 µM (inactive) | GI50 (Hs-578T): 86.3 µM (inactive) | GI50 (SK-MEL-28): > 100 µM (inactive) | GI50 (SK-MEL-2): > 100 µM (inactive) | GI50 (OVCAR-3): 96.6 µM (inactive) | GI50 (UO-31): 43 µM (inactive) | GI50 (CAKI-1): 36.8 µM (inactive) | GI50 (KM12): 29.9 µM (inactive) | GI50 (SF-539): > 100 µM (inactive) | GI50 (SK-OV-3): > 100 µM (inactive) | GI50 (SF-295): 48.6 µM (inactive) | GI50 (SN12C): 83.2 µM (inactive) | GI50 (RXF 393): > 100 µM (inactive) | GI50 (SK-MEL-5): 31.3 µM (inactive) | GI50 (A549): 45.5 µM (inactive) | GI50 (UACC-257): 34 µM (inactive) | GI50 (K562): 40.5 µM (inactive) | GI50 (MDA-MB-435): 36.4 µM (inactive) | GI50 (SW-620): 62.7 µM (inactive)

CC(C)(Cl)C(Br)CC/C(=C/CBr)CBr.CC(C)(Cl)C(Br)CC/C(=C\CBr)CBr (stereo not given)
GI50 (EKVX): 24.8 µM (inactive) | GI50 (RPMI-8226): 1.11 µM (active) | GI50 (NCI-H460): 3.61 µM (inactive) | GI50 (NCI-H226): 24.6 µM (inactive) | GI50 (786-0): 1.59 µM (inactive) | GI50 (NCI-H522): 1.68 µM (inactive) | GI50 (SNB-19): 4.12 µM (inactive) | GI50 (A498): 8.63 µM (inactive) | GI50 (BT-549): 2.77 µM (inactive) | GI50 (NCI-H23): 2.83 µM (inactive) | GI50 (U-251): 2 µM (inactive) | GI50 (SF-268): 2.14 µM (inactive) | GI50 (HL-60): 0.757 µM (active) | GI50 (OVCAR-8): 3.01 µM (inactive) | GI50 (HCT-15): 1.95 µM | GI50 (HOP-62): 5.93 µM (inactive) | GI50 (HCC 2998): 5.82 µM (inactive) | GI50 (TK-10): 4.1 µM (inactive) | GI50 (DU-145): 8.05 µM (inactive) | GI50 (ACHN): 3.88 µM (inactive) | GI50 (MCF7): 2.84 µM (inactive) | GI50 (Malme-3M): 1.78 µM (inactive) | GI50 (MDA-N): 2.62 µM (inactive) | GI50 (NCI/ADR-RES): 2.86 µM (inactive) | GI50 (M14): 2 µM (inactive) | GI50 (HT-29): 1.95 µM (inactive) | GI50 (HOP-92): 2.03 µM (inactive) | GI50 (MOLT-4): 1.14 µM (inactive) | GI50 (MDA-MB-231): 1.89 µM (inactive) | GI50 (OVCAR-4): 2.25 µM (inactive) | GI50 (OVCAR-5): 13.2 µM (inactive) | GI50 (IGROV-1): 2.28 µM (inactive) | GI50 (SNB-75): 2.48 µM (inactive) | GI50 (T47D): 4.23 µM (inactive) | GI50 (CCRF-CEM): 0.959 µM (active) | GI50 (PC-3): 7.45 µM (inactive) | GI50 (COLO 205): 2.32 µM (inactive) | GI50 (HCT-116): 1.79 µM (inactive) | GI50 (UACC-62): 5.01 µM (inactive) | GI50 (Hs-578T): 4.69 µM (inactive) | GI50 (SK-MEL-28): 3.2 µM (inactive) | GI50 (SK-MEL-2): 4.98 µM (inactive) | GI50 (OVCAR-3): 2.45 µM (inactive) | GI50 (UO-31): 1.62 µM (inactive) | GI50 (KM12): 2.36 µM (inactive) | GI50 (SF-539): 2.47 µM (inactive) | GI50 (SK-OV-3): 15 µM (inactive) | GI50 (SF-295): 3.71 µM (inactive) | GI50 (SN12C): 2.49 µM (inactive) | GI50 (RXF 393): 4.22 µM (inactive) | GI50 (SK-MEL-5): 2.87 µM (inactive) | GI50 (A549): 12.5 µM (inactive) | GI50 (UACC-257): 4.37 µM (inactive) | GI50 (K562): 1.71 µM (inactive) | GI50 (MDA-MB-435): 1.87 µM (inactive) | GI50 (SW-620): 2.3 µM (inactive)
